Laboratory results taken from ChEMBL document CHEMBL1201862, “PubChem BioAssay data set” (2004).
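Results reflect a 48-hour exposure of cells in 96-well plates to compound at five concentrations. GI50: concentration for 50% inhibition of growth.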 Activity calls are given as the source filed them. Rule as the data show it: active = GI50 up to about 1.1 µM and inactive = higher. Residues, ends and D or L forms follow the SMILES beside them.

Columns and labels:
Test in all cases: NCI tumour cell line growth inhibition, 48 h
OVCAR-4 = system: OVCAR-4
COLO 205 = system: COLO 205
SR = system: SR
BT-549 = system: BT-549
MDA-MB-435 = system: MDA-MB-435
OVCAR-5 = system: OVCAR-5
OVCAR-8 = system: OVCAR-8
786-0 = system: 786-0
SNB-19 = system: SNB-19
HOP-92 = system: HOP-92
EKVX = system: EKVX
LOX IMVI = system: LOX IMVI
SNB-75 = system: SNB-75
SN12C = system: SN12C
NCI-H226 = system: NCI-H226
SK-OV-3 = system: SK-OV-3
CCRF-CEM = system: CCRF-CEM
HCT-15 = system: HCT-15
KM12 = system: KM12
DMS-114 = system: DMS-114

SMILES | GI50 (OVCAR-4) | GI50 (COLO 205) | GI50 (SR) | GI50 (BT-549) | GI50 (MDA-MB-435) | GI50 (OVCAR-5) | GI50 (OVCAR-8) | GI50 (786-0) | GI50 (SNB-19) | GI50 (HOP-92) | GI50 (EKVX) | GI50 (LOX IMVI) | GI50 (SNB-75) | GI50 (SN12C) | GI50 (NCI-H226) | GI50 (SK-OV-3) | GI50 (CCRF-CEM) | GI50 (HCT-15) [µM] | GI50 (KM12) | GI50 (DMS-114)
C[C@]12CC[C@H](O)C[C@@H]1CC[C@@H]1[C@@H]2CC[C@]2(C)[C@@H](C3=CC(=O)OC3)CC[C@]12O | 2.08 µM (inactive) | 3.18 µM (inactive) | > 100 µM (inactive) | 1.88 µM (inactive) | 3.03 µM (inactive) | 4.25 µM (inactive) | 3.08 µM (inactive) | 1.95 µM (inactive) | 4.95 µM (inactive) | 5.42 µM (inactive) | 2.38 µM (inactive) | 2.59 µM (inactive) | 3.85 µM (inactive) | 0.964 µM (active) | 11.2 µM (inactive) | 3.21 µM (inactive) | 0.76 µM (active) | 1.86 | 5.81 µM (inactive) | –
O=C1C(=C(I)I)c2ccccc2-c2ccccc21 | 2.98 µM (inactive) | 1.56 µM (inactive) | 2.33 µM (inactive) | 6.12 µM (inactive) | 2.24 µM (inactive) | 5.47 µM (inactive) | 2.59 µM (inactive) | 2.07 µM (inactive) | 14.4 µM (inactive) | 2.26 µM (inactive) | 3 µM (inactive) | 2.08 µM (inactive) | 2.58 µM (inactive) | 2.05 µM (inactive) | 19.7 µM (inactive) | 14.8 µM (inactive) | 0.386 µM (active) | 2.47 | 12 µM (inactive) | –
CCCCc1ccc(-n2sc3ncc(-c4ccccc4)cc3c2=O)cc1 | 42.1 µM (inactive) | > 100 µM (inactive) | > 100 µM (inactive) | 59.6 µM (inactive) | > 100 µM (inactive) | > 100 µM (inactive) | 43.2 µM (inactive) | > 100 µM (inactive) | > 100 µM (inactive) | > 100 µM (inactive) | > 100 µM (inactive) | > 100 µM (inactive) | > 100 µM (inactive) | > 100 µM (inactive) | > 100 µM (inactive) | > 100 µM (inactive) | > 100 µM (inactive) | > 100 | > 100 µM (inactive) | –
CCCCN1C(=O)c2c(-c3sccc3N)sc(-c3sccc3N)c2C1=O | 10.9 µM (inactive) | 15.4 µM (inactive) | 1.98 µM (inactive) | 29.4 µM (inactive) | 30.8 µM (inactive) | 21.5 µM (inactive) | 12.3 µM (inactive) | 7.85 µM (inactive) | 18.9 µM (inactive) | 52 µM (inactive) | 26.9 µM (inactive) | 30.7 µM (inactive) | 10.4 µM (inactive) | 19 µM (inactive) | 0.713 µM (active) | 10.6 µM (inactive) | 4.05 µM (inactive) | > 34.9 | 44.6 µM (inactive) | –
CCOC(=O)c1nc2ccc([N+](=O)[O-])cc2c2c1CCO2 | > 100 µM (inactive) | > 100 µM (inactive) | – | – | – | > 100 µM (inactive) | > 100 µM (inactive) | > 100 µM (inactive) | > 100 µM (inactive) | – | > 100 µM (inactive) | > 100 µM (inactive) | 41.3 µM (inactive) | > 100 µM (inactive) | > 100 µM (inactive) | > 100 µM (inactive) | > 100 µM (inactive) | > 100 | > 100 µM (inactive) | > 100 µM (inactive)
CC(=O)OC(CC(C)C)P1(=O)N(CC(C)(C)C)[C@@H]2CCCC[C@H]2N1CC(C)(C)C (stereo not given in full) | 9.42 µM (inactive) | 6 µM (inactive) | 10.2 µM (inactive) | 15.5 µM (inactive) | 12.3 µM (inactive) | 10.2 µM (inactive) | 8.2 µM (inactive) | 10.8 µM (inactive) | 9.29 µM (inactive) | 2.58 µM (inactive) | 11.2 µM (inactive) | 11.9 µM (inactive) | 7.55 µM (inactive) | 10.7 µM (inactive) | 10.4 µM (inactive) | 15.1 µM (inactive) | 13.2 µM (inactive) | 9.82 | 9.66 µM (inactive) | –
O=C1CCC(=O)C(C(=O)CCC(=O)Nc2ccc(Cl)cc2)C1 (stereo not given) | > 100 µM (inactive) | > 100 µM (inactive) | – | – | – | > 100 µM (inactive) | > 100 µM (inactive) | > 100 µM (inactive) | > 100 µM (inactive) | > 100 µM (inactive) | > 100 µM (inactive) | > 100 µM (inactive) | – | > 100 µM (inactive) | > 100 µM (inactive) | > 100 µM (inactive) | > 100 µM (inactive) | > 100 | > 100 µM (inactive) | > 100 µM (inactive)
Oc1cc(Cl)ncn1 | > 100 µM (inactive) | > 100 µM (inactive) | – | – | – | > 100 µM (inactive) | > 100 µM (inactive) | > 100 µM (inactive) | > 100 µM (inactive) | – | > 100 µM (inactive) | > 100 µM (inactive) | > 100 µM (inactive) | > 100 µM (inactive) | > 100 µM (inactive) | > 100 µM (inactive) | > 100 µM (inactive) | > 100 | > 100 µM (inactive) | > 100 µM (inactive)
CCCCn1c(C)c2c(c1C)C(=O)N(CCN1CCN(c3ccccc3Cl)CC1)C2=O | 51.2 µM (inactive) | 35 µM (inactive) | 26.4 µM (inactive) | 17.3 µM (inactive) | 32.4 µM (inactive) | 61.8 µM (inactive) | 44.9 µM (inactive) | > 10 µM (inactive) | 92.3 µM (inactive) | 25.4 µM (inactive) | 35.6 µM (inactive) | 16.5 µM (inactive) | 31.6 µM (inactive) | 26.7 µM (inactive) | 36.9 µM (inactive) | 21.6 µM (inactive) | 29.3 µM (inactive) | 35.6 | 31.5 µM (inactive) | –
CC(=O)n1nc(-c2ccccc2)n(/N=C/c2ccc([N+](=O)[O-])cc2)c1=O | 41.3 µM (inactive) | > 100 µM (inactive) | > 100 µM (inactive) | > 100 µM (inactive) | > 100 µM (inactive) | > 100 µM (inactive) | 98.2 µM (inactive) | > 100 µM (inactive) | > 100 µM (inactive) | 59.3 µM (inactive) | 31.1 µM (inactive) | > 100 µM (inactive) | > 100 µM (inactive) | > 100 µM (inactive) | > 100 µM (inactive) | 52.8 µM (inactive) | > 100 µM (inactive) | > 100 | > 100 µM (inactive) | –
COC(=O)/C(=C(/C)c1ccco1)P(=O)(OC)OC | > 100 µM (inactive) | > 100 µM (inactive) | > 100 µM (inactive) | > 100 µM (inactive) | > 100 µM (inactive) | > 100 µM (inactive) | > 100 µM (inactive) | > 100 µM (inactive) | > 100 µM (inactive) | > 100 µM (inactive) | > 100 µM (inactive) | > 100 µM (inactive) | > 100 µM (inactive) | > 100 µM (inactive) | > 100 µM (inactive) | > 100 µM (inactive) | > 100 µM (inactive) | > 100 | > 100 µM (inactive) | –
CCOC(=O)c1c(C)c2c(n1C)CCc1c[nH]nc1-2 | > 100 µM (inactive) | > 100 µM (inactive) | – | – | – | 99.1 µM (inactive) | > 100 µM (inactive) | – | > 64.6 µM (inactive) | > 100 µM (inactive) | 18 µM (inactive) | > 100 µM (inactive) | > 100 µM (inactive) | > 100 µM (inactive) | > 100 µM (inactive) | > 100 µM (inactive) | > 100 µM (inactive) | > 100 | > 100 µM (inactive) | > 100 µM (inactive)
N#CC1(C#N)C(c2ccc(C3C(C#N)(C#N)C3(C#N)C#N)cc2)C1(C#N)C#N | > 100 µM (inactive) | > 100 µM (inactive) | – | – | – | > 100 µM (inactive) | > 100 µM (inactive) | > 100 µM (inactive) | > 100 µM (inactive) | > 100 µM (inactive) | > 100 µM (inactive) | > 100 µM (inactive) | > 100 µM (inactive) | > 100 µM (inactive) | – | > 100 µM (inactive) | > 100 µM (inactive) | > 100 | > 100 µM (inactive) | > 100 µM (inactive)
CCC(C)C(NC(=O)C(CCCCN)NC(=O)C(NC(=O)C(CCC(N)=O)NC(=O)C(N)CCCNC(=N)N)C(C)CC)C(=O)NC(Cc1c[nH]c2ccccc12)C(=O)NC(Cc1ccccc1)C(=O)NC(CCC(N)=O)C(=O)NC(CC(N)=O)C(=O)NC(CCCNC(=N)N)C(=O)NC(CCCNC(=N)N)C(=O)NC(CCSC)C(=O)NC(CCCCN)C(=O)NC(Cc1c[nH]c2ccccc12)C(=O)NC(CCCCN)C(=O)NC(CCCCN)C(=O)N1CCCC1C(=O)NC(C)C(=O)NC(CCCCN)C(=O)NC(CCCNC(=N)N)C(=O)NC(CCCCN)C(=O)NC(CC(C)C)C(=O)NC(Cc1ccccc1)C(=O)NCC(=O)O (stereo not given) (H-RQIKIWFQNRRMKWKKPAKRKLFG-OH; configuration not given here) | > 25 µM (inactive) | > 25 µM (inactive) | > 25 µM (inactive) | > 25 µM (inactive) | 16 µM (inactive) | > 25 µM (inactive) | > 25 µM (inactive) | 17.5 µM (inactive) | > 25 µM (inactive) | 9.64 µM (inactive) | > 25 µM (inactive) | > 25 µM (inactive) | > 25 µM (inactive) | > 25 µM (inactive) | > 25 µM (inactive) | > 25 µM (inactive) | 12.4 µM (inactive) | > 25 | 9.31 µM (inactive) | –
CC(C)=CCC[C@@H](C)C1=CC(=O)C(C)=C(O)C1=O [ISOPEREZONE] | 7.1 µM (inactive) | 10.2 µM (inactive) | 2.39 µM (inactive) | 5.78 µM (inactive) | 4.31 µM (inactive) | 14.4 µM (inactive) | 2.15 µM (inactive) | 5.78 µM (inactive) | 15.9 µM (inactive) | 2.5 µM (inactive) | 5.56 µM (inactive) | 2.83 µM (inactive) | 4.5 µM (inactive) | 10.7 µM (inactive) | 7.19 µM (inactive) | 17.9 µM (inactive) | 1.19 µM (inactive) | 2.66 | 5.09 µM (inactive) | –
